From patent US9216166B2, “Anti-microbial photodynamic therapy” (Biolitec Pharma Marketing, Ltd, priority 2006, dated 2015)

Tests used:
Assay type in all cases: cell-based
[1] = tested on: Escherichia coli DSM8698; experiment: Photodynamic inactivation of Escherichia coli with Safranin O (FIG. 1C); conditions: compared with Staphylococcus aureus
Description: (§1) One of the major problems for the use of anti-microbial PDT is a blocking action of the components of the blood whose presence decreases the activity of photosensitizers.
(§2) The antibacterial effect strongly depends on the kind of bacterial cells.
(§3) FIG. 1, Graph showing photodynamic inactivation of Staphylococcus aureus DSM1104 (FIG. 1A), Pseudomonas aeruginosa DSM1 117 (FIG. 1B), and Escherichia coli DSM8698 (FIG. 1C) by treatment with Safranin O as a photo sensitizer.

[2] = tested on: Staphylococcus aureus DSM1104; experiment: Photodynamic inactivation of Staphylococcus aureus with Safranin O (FIG. 1A)
Description: as §1, §2, §3

[3] = tested on: Staphylococcus aureus, Pseudomonas aeruginosa and Escherichia coli; experiment: Photodynamic inactivation of bacteria with Safranin O (FIG. 1)
Description: as §1, §2, §3

[4] = tested on: Pseudomonas aeruginosa DSM1117; experiment: Photodynamic inactivation of Pseudomonas aeruginosa with Safranin O (FIG. 1B)
Description: as §1, §2, §3

[5] = tested on: Gram-positive and Gram-negative bacteria; experiment: Photodynamic inactivation of bacterial cell suspension using photosensitizers 1, 3a-e (CFU/ml after 665 nm laser irradiation); conditions: in the presence of blood (PBS with 10% human blood), 30 min incubation, about 100 J/cm^2, FIG. 2
Protocol: In the preferred embodiment, the antibacterial treatment includes the administration of photosensitizers to an environment containing bacteria and is allowed to incubate for a sufficient period of time thus providing accumulation of the photosensitizer into the bacterial cells. The incubation time varies depending on many factors. In this experiment it is incubated for 30 min before being irradiated with 665 nm laser at 100 J/cm^2 to initiate photodestruction of bacterial cells. The photosensitizer can be administered either by systemic application, or local injection in the affected area. For infection on or near the skin it can be administered topically.
The organisms used in our studies were three members of the microflora of wounds: Staphylococcus aureus DSM1104, Gram-positive; Escherichia coli DSM8698, Gram-negative; Pseudomonas aeruginosa DSM1117, Gram-negative.
Cultured cells are suspended in sterile phosphate-buffered saline (PBS) or sterile PBS supplemented with 10% sterile horse blood serum, 10% human plasma or 10% human blood respectively. The final OD (Optical Density) at 600 nm, 1 cm in all cases was 0.03. The bacterial suspensions are placed into sterile black well plates with clear bottoms. […]

SMILES | susceptibility of Gram-negative cells of Escherichia coli to killing by PDT [1] | killing of Gram-positive cells of Staphylococcus aureus by PDT [2] | bactericidal photodynamic activity ([3]; in PBS buffer) | change of bactericidal photodynamic activity ([3]; when blood serum or blood is added) | effect of added serum, plasma or blood on photodynamic activity against Pseudomonas aeruginosa ([4]; addition of 10% of horse serum or human plasma or whole blood) | susceptibility of Gram-negative cells of Pseudomonas aeruginosa to killing by PDT ([4]; compared with Staphylococcus aureus, FIG. 1) | photodynamic activity against Gram-positive and Gram-negative bacteria [5]
Cc1cc2nc3cc(C)c(N)cc3[n+](-c3ccccc3)c2cc1N.[Cl-] [Safranin O] | more resistant to killing by PDT | could be killed sufficiently | high bactericidal photodynamic activity | decreased remarkably | practically block the photodynamic activity | more resistant to killing by PDT | 
CCC1=C(C)c2cc3[nH]c(cc4nc(c5c6[nH]c(cc1n2)c(C)c6C(=O)C5)[C@@H](CCC(=O)O)C4C)c(C)c3CC (stereo partly drawn) [compound 1, meso pyropheophorbide-a] |  |  |  |  |  |  | not active
